The source of these data is patent US5977169A, “Substituted tetronic acids useful for treating HIV and other retroviruses” (priority 1997, dated 1999).

By inhibition is commonly meant the change of the read-out against control, counted positive when it falls.

The target in this assay is T1, HIV-1 protease (Human immunodeficiency virus type 1 group M subtype B, UniProt P04585).
T1 construct: The protease (or proteinase) enzyme, consisting of only 99 amino acids
The assay is described as follows: In vitro HIV protease inhibitory assay (fluorescently labeled substrate, avidin-polystyrene particles). In kind it is biochemical. Conditions: for inhibition at 3.3 µM: HIV-1 dose 3.3 μM; for inhibition at 10 µM: HIV-1 dose 10.0 μM; for inhibition at 30 µM: HIV-1 dose 30.0 μM; for inhibition at 100 µM: HIV-1 dose 100.0 μM; for inhibition at 0.37 µM: HIV-1 dose 0.37 μM; for inhibition at 1.1 µM: HIV-1 dose 1.1 μM. How it is done: The HIV protease screening assay is based on a fluorescently labeled substrate which can be resolved from nonlabeled cleavage product using avidin-polystyrene particles, 0.7-0.9 μm. The substrate is biotinylated at the amino terminal arginine and fluorescently labeled with fluorescein isothiocynate (FITC) at the carboxyl terminal lysine. This assay has been employed to detect novel, nonpeptidic inhibitors of HIV-1 protease. Substrate (20 μl of 0.2 μM), sample (10 μl of desired concentraion), and enzyme (10 μl of 0.1 μM) are added to a 96 well pandex plate. The assay is run in 0.1 M sodium acetate buffer at pH 5.5 in the presence of 1.0 M sodium chloride and 0.05% NP-40 and incubated in the dark for one hour at room temperature. Avidin coated polystyrene beads (40 μl of 0.1% (w/v)) are added and the incubation is continued in the dark for an additional half hour. The labeled cleavage product is separated from the unreacted substrate via filtration and is read on the IDEXX Screen Machine. (IDEXX Corporation--Portland, Me.) The data are analyzed by appropriate computer algorithms to ascertain percent inhibition values.
The Activity Table showing the results of the HIV Protease Inhibitory Assay appears below in TABLE 1. The table has three columns, the left column provides the code number of the compound for easy cross reference to structure tables and detailed procedures, the middle column provides the concentration of test compound and the column on the right provides the percent inhibition.

The mark [1] stands for this setting: test compound concentration 3.3 μM.
Where [2] appears, read: test compound concentration 10.0 μM.
[3] abbreviates: test compound concentration 30.0 μM.

Each structure is given as a SMILES string. Counter-ions that a name gives are not always drawn.

Regarding `O=C1OC(CCCc2ccccc2)(Cc2ccccc2)C(O)=C1C(c1ccccc1)C1CC1` (stereo not drawn) [DX-15, 2(5H)-Furanone, 3-(cyclopropylphenylmethyl)-4-hydroxy-5-(phenylmethyl)-5-(3--phenylpropyl)-], the inhibition at 3.3 µM was 108%, the inhibition at 10 µM turned out to be 116% and the inhibition at 30 µM is 114%.

For the compound `CCC(C1=C(O)C(CC)(Cc2ccccc2)OC1=O)c1ccccc1` (stereo not drawn) [IX-10, 2(5H)-Furanone, 5-ethyl-4-hydroxy-5-(phenyl-methyl)-3-(1-phenylpropyl)-], the inhibition at 3.3 µM was 97.3%, the inhibition at 10 µM was 105% and the inhibition at 30 µM was determined as 101%.

As for `O=C1OC2(CCCC2)C(O)=C1C(c1ccccc1)C1CC1` (stereo not drawn) [CX-1, 1-Oxaspiro[4.4]non-3-en-2-one, 3-(cyclopropylphenylmethyl)-4-hydroxy-], the inhibition at 100 µM is 109%. Moreover, the inhibition at 3.7 µM (HIV-1 dose 3.7 μM) is 109%. Besides, where the note is “HIV-1 dose 11.0 μM”, the inhibition at 11 µM was 115%.

On to `O=C1OC2(CCCCC2Cc2ccccc2)C(O)=C1C(c1ccccc1)C1CC1` (stereo not drawn) [IX-7, 1-Oxaspiro[4.5]dec-3-en-2-one, 3-(cyclo-propylphenylmethyl)4-hydroxy-6--(2-phenylmethyl)-], for which the “HIV-1 Protease % Inhibition” value turned out to be 102.85% under setting [1], 99.7% under setting [2] and 95.76% under setting [3].

In the case of `O=C1OC2(CCCCC2)C(O)=C1C(c1ccccc1)C1CC1` (stereo not drawn) [IX-3, 1-Oxaspiro[4.5]dec-3-en-2-one, 3-(cyclopropyl-phenylmethyl)-4-hydroxy-], the inhibition at 3.3 µM is 102%, the inhibition at 10 µM was found to be 114% and the inhibition at 30 µM was 103%.

Take `CCCC1(CCC)OC(=O)C(C(c2ccccc2)C2CC2)=C1O` (stereo not drawn) [BX-12, 2(5H)-Furanone, 3-(cyclopropylphenylmethyl)-4-hydroxy-5,5-dipropyl-]: the inhibition at 3.3 µM was determined as 110%, the inhibition at 10 µM was determined as 112% and the inhibition at 30 µM is 95.3%.

Consider `CCCC1(CCC)OC(=O)C(C(CC(C)C)c2cccc(NS(=O)(=O)c3ccc(C#N)cc3)c2)=C1O` (stereo not drawn) [IX-21, Benzenesulfonamide, 4-Cyano-N-(3-(1-(4-hydroxy-2-oxo-5,5-dipropyl-2,5-dihydro-furan-3-yl)-3-methyl-butyl)-phenyl)-], for which the inhibition at 3.3 µM was 95.7%, the inhibition at 10 µM was 101% and the inhibition at 30 µM worked out at 96.1%.

Turning to `CCCC1(CCC)OC(=O)C(C(c2cccc(NS(=O)(=O)c3ccc4ccccc4n3)c2)C2CC2)=C1O` (stereo not drawn) [IX-38], the inhibition at 3.3 µM was determined as 83%, the inhibition at 10 µM was determined as 85% and the inhibition at 30 µM turned out to be 84.8%.

Consider `CCCC1(CCC)OC(=O)C(C(c2cccc(NS(=O)(=O)c3nc4ccccc4[nH]3)c2)C2CC2)=C1O` (stereo not drawn) [IX-51], for which the inhibition at 3.3 µM amounted to 101%, the inhibition at 10 µM was found to be 102% and the inhibition at 30 µM is 106%.

For `CCCC1(CCC)OC(=O)C(C(c2cccc(NS(=O)(=O)c3cn(C)cn3)c2)C(C)(C)C)=C1O` (stereo not drawn) [IX-26, 1H-Imidazole-4-sulfonamide, N-(3-(1-(4-hydroxy-2-oxo-5,5-dipropyl-2,5-dihydro-furan-3-yl)-2,2-dimethyl-propyl)-phenyl)-1-methyl-], the inhibition at 3.3 µM was found to be 110%, the inhibition at 10 µM stood at 116% and the inhibition at 30 µM turned out to be 105%.

As to `O=C1OC(CCCc2ccccc2)C(O)=C1C(Cc1ccccc1)c1ccccc1` (stereo not drawn) [FX-1, 2(5H)-Furanone, 3-(1,2-diphenylethyl)-4-hydroxy-5-(3-phenylpropyl)-], the inhibition at 3.3 µM came to 15.5%, the inhibition at 10 µM was determined as 35.4% and the inhibition at 30 µM came to 50.6%.

With `N#Cc1ccc(S(=O)(=O)Nc2cccc(C(C3=C(O)C(Cc4ccccc4)(Cc4ccccc4)OC3=O)C3CC3)c2)cc1` (stereo not drawn) [IX-43], the inhibition at 3.3 µM is 98.6%, the inhibition at 10 µM is 96.8% and the inhibition at 30 µM was found to be 99.8%.

Turning to `CCCC1(CCC)OC(=O)C(C(c2cccc(NS(=O)(=O)c3cccc4cccnc34)c2)C2CC2)=C1O` (stereo not drawn) [IX-18], the inhibition at 3.3 µM came out at 102%, the inhibition at 10 µM was 125% and the inhibition at 30 µM was determined as 106%.

On to `CCCC1(CCC)OC(=O)C(C(c2cccc(N)c2)C2CC2)=C1O` (stereo not drawn) [IX-12, 2(5H)-Furanone, 3-((3-aminophenyl)cyclopropylmethyl)-4-hydroxy-5,5-dipropyl-hydrochloride], for which the “HIV-1 Protease % Inhibition” value was found to be 117.79% under setting [1], 119.69% under setting [2] and 120.48% under setting [3].

With `O=C1OC(CCCc2ccccc2)C(O)=C1C(c1ccccc1)c1ccccc1` (stereo not drawn) [FX-2, 2(5H)-Furanone, 3-(diphenylmethyl)-4-hydroxy-5-(3-phenylpropyl)-], the inhibition at 3.3 µM was found to be 41.5%, the inhibition at 10 µM turned out to be 69% and the inhibition at 30 µM is 77.3%.

As for `CCCC1(CCC)OC(=O)C(C(c2cccc(NS(=O)(=O)c3cn(C)cn3)c2)C2CCCC2)=C1O` (stereo not drawn) [IX-42, 1H-Imidazole-4-sulfonamide, N-(3-(cyclopentyl(2,5-dihydro-4-hydroxy-2-oxo-5,5-dipropyl-3-furanyl)methyl)phenyl)-1-methyl-], the inhibition at 3.3 µM came out at 94.5%, the inhibition at 10 µM was 96% and the inhibition at 30 µM came out at 96.8%.

As for `CCCC1(CCC)OC(=O)C(C(c2cccc(NS(=O)(=O)c3ccc(C#N)cc3)c2)C(C)C)=C1O` (stereo not drawn) [IX-23, Benzenesulfonamide, 4-Cyano-N-(3-(1-(4-hydroxy-2-oxo-5,5-dipropyl-2,5-dihydro-furan-3-yl)-2-methyl-propyl)-phenyl)-], the inhibition at 3.3 µM stood at 109%, the inhibition at 10 µM amounted to 101% and the inhibition at 30 µM is 112%.

In the case of `CCCC1(CCC)OC(=O)C(C(c2cccc(NS(=O)(=O)c3ccc(F)cc3)c2)C2CC2)=C1O` (stereo not drawn) [IX-16], the inhibition at 3.3 µM came out at 108%, the inhibition at 10 µM was found to be 109% and the inhibition at 30 µM was 106%.

As to `CC(CCc1ccccc1)C1OC(=O)C(C(c2ccccc2)C2CC2)=C1O` (stereo not drawn) [GX-3, 2(5H)-Furanone, 3-(cyclopropylphenylmethyl)-4-hydroxy-5-(1-methyl-3-phenyl-propyl)-], the inhibition at 3.3 µM was found to be 67.2%, the inhibition at 10 µM is 84.7% and the inhibition at 30 µM is 87.4%.

Regarding `CCC(C)C1(CCCc2ccccc2)OC(=O)C(C(c2ccccc2)C2CC2)=C1O` (stereo not drawn) [DX-19, 2(5H)-Furanone, 3-(cyclopropylphenylmethyl)-4-hydroxy-5-(1-methylpropyl)--5-(3-phenylpropyl)-], the inhibition at 0.37 µM is 100%, the inhibition at 1.1 µM turned out to be 103% and the inhibition at 3.3 µM came to 100%.

Consider `CCCC1(CCC)OC(=O)C(C(c2cccc(NS(=O)(=O)c3ncccn3)c2)C2CC2)=C1O` (stereo not drawn) [IX-55, 2-Pyrimidinesulfonamide, N-(3-(cyclopropyl-(4-hydroxy-2-oxo-5,5-dipropyl-2,5 dihydro-furan-3-yl)-methyl)-phenyl)-], for which the inhibition at 3.3 µM was 93.8%, the inhibition at 10 µM is 93.8% and the inhibition at 30 µM came out at 96.3%.

Take `CCCC1(Cc2ccccc2)OC(=O)C(C(c2cccc(NS(=O)(=O)c3cccc4cccnc34)c2)C(C)C)=C1O` (stereo not drawn) [IX-31]: the inhibition at 3.3 µM was determined as 107%, the inhibition at 10 µM amounted to 114% and the inhibition at 30 µM was determined as 109%.

As for `C=CCC1(CCCc2ccccc2)OC(=O)C(C(c2ccccc2)C2CC2)=C1O` (stereo not drawn) [DX-16, 2(5H)-Furanone, 3-(cyclopropylphenylmethyl)-4-hydroxy-5-(3-phenyl-propyl)-5-(2-propenyl)-], the inhibition at 3.3 µM was determined as 114%, the inhibition at 10 µM came out at 115% and the inhibition at 30 µM was 118%.

For the compound `O=C1OC(Cc2ccccc2)C(O)=C1C(c1ccccc1)C1CC1` (stereo not drawn) [BX-1, 5H-Furan-2-one, 5-benzyl-3-cyclopropylphenylmethyl-4-hydroxy-], the inhibition at 10 µM stood at 80.1% and the inhibition at 100 µM was 90.5%. In addition, under “HIV-1 dose 1.0 μM”, the inhibition at 1 µM was 18.7%.

As for `CCCC1(CCC)OC(=O)C(C(CC)c2cccc([N+](=O)[O-])c2)=C1O` (stereo not drawn) [IX-2, 2(5H)-Furanone, 4-hydroxy-3-(1-(3-nitrophenyl)propyl)-5,5-dipropyl-], the inhibition at 3.3 µM was 102%, the inhibition at 10 µM was found to be 113% and the inhibition at 30 µM was 102%.

In the case of `CC1(CCc2ccccc2)OC(=O)C(C(c2ccccc2)C2CC2)=C1O` (stereo not drawn) [CX-3, 2(5H)-Furanone, 3-(cyclopropylphenylmethyl)-4-hydroxy-5-methyl-5-(2--phenylethyl)-], the inhibition at 3.3 µM was determined as 98.1%, the inhibition at 10 µM was found to be 111% and the inhibition at 30 µM came out at 118%.

For `CC(C)CC1(CCCc2ccccc2)OC(=O)C(C(c2ccccc2)C2CC2)=C1O` (stereo not drawn) [DX-20, 2(5H)-Furanone, 3-(cyclopropylphenylmethy)-4-hydroxy-5-(2-methylpropyl)-5--(3-phenylpropyl)-], the inhibition at 0.37 µM is 71.5% and the inhibition at 1.1 µM came out at 90.3%. For the setting “HIV-1 dose 0.12 μM”, the inhibition at 0.12 µM came to 29.2%.
